Key:
Assay in all cases: relative viability (nuclei count vs DMSO), 5 days (fraction); higher = more cells survive
NCI-H3122 = system: NCI-H3122
Summary of the method: (§1)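 Relative viability equals treated-well nuclei counts divided by vehicle-well nuclei counts. Counts came from 4× images of lung cancer cell lines grown in 1536-well plates for 5 days after pin-tool dosing on the day after seeding. Dosing used one drug alone or a fixed anchor-drug dose plus five library-drug doses (not always all listed) in √10 steps, and values are medians of duplicate plates.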

NCI-H727 = system: NCI-H727
Summary of the method: as §1

NCI-H838 = system: NCI-H838
Summary of the method: as §1

NCI-H23 = system: NCI-H23
Summary of the method: as §1

NCI-H1993 = system: NCI-H1993
Summary of the method: as §1

EMC-BAC-2 = system: EMC-BAC-2
Summary of the method: as §1

NCI-H596 = system: NCI-H596
Summary of the method: as §1

NCI-H647 = system: NCI-H647
Summary of the method: as §1

LCLC-103H = system: LCLC-103H
Summary of the method: as §1

BEN = system: BEN
Summary of the method: as §1

NCI-H2087 = system: NCI-H2087
Summary of the method: as §1

NCI-H441 = system: NCI-H441
Summary of the method: as §1

NCI-H2347 = system: NCI-H2347
Summary of the method: as §1

HCC-44 = system: HCC-44
Summary of the method: as §1

NCI-H2126 = system: NCI-H2126
Summary of the method: as §1

NCI-H2023 = system: NCI-H2023
Summary of the method: as §1

NCI-H650 = system: NCI-H650
Summary of the method: as §1

201T = system: 201T
Summary of the method: as §1

LOU-NH91 = system: LOU-NH91
Summary of the method: as §1

HARA = system: HARA
Summary of the method: as §1

Structure (SMILES): O=c1cc(-c2cccc3c2Sc2ccccc2S3)oc(N2CCOCC2)c1 + C[C@@H](Oc1cc(-c2cnn(C3CCNCC3)c2)cnc1N)c1c(Cl)ccc(F)c1Cl [Crizotinib] (partner 1 µM)
- relative viability (NCI-H3122; first compound 0.08 µM): 0.324
- relative viability (NCI-H3122; first compound 0.253 µM): 0.266
- relative viability (NCI-H3122; first compound 0.8 µM): 0.24
- relative viability (NCI-H3122; first compound 2.53 µM): 0.3
- relative viability (NCI-H3122; first compound 8 µM): 0.323
- relative viability (NCI-H727; first compound 0.253 µM): 0.892
- relative viability (NCI-H727; first compound 2.53 µM): 0.724
- relative viability (NCI-H727; first compound 8 µM): 0.868
- relative viability (NCI-H838; first compound 0.08 µM): 0.883
- relative viability (NCI-H838; first compound 0.253 µM): 0.988
- relative viability (NCI-H838; first compound 0.8 µM): 0.82
- relative viability (NCI-H838; first compound 2.53 µM): 0.794
- relative viability (NCI-H838; first compound 8 µM): 0.816
- relative viability (NCI-H23; first compound 0.08 µM): 0.442
- relative viability (NCI-H23; first compound 0.253 µM): 0.564
- relative viability (NCI-H23; first compound 0.8 µM): 0.626
- relative viability (NCI-H23; first compound 2.53 µM): 0.572
- relative viability (NCI-H23; first compound 8 µM): 0.522
- relative viability (NCI-H1993; first compound 0.08 µM): 0.838
- relative viability (NCI-H1993; first compound 0.253 µM): 1.01
- relative viability (NCI-H1993; first compound 0.8 µM): 0.89
- relative viability (NCI-H1993; first compound 2.53 µM): 0.871
- relative viability (NCI-H1993; first compound 8 µM): 0.99
- relative viability (EMC-BAC-2; first compound 0.08 µM): 0.856
- relative viability (EMC-BAC-2; first compound 0.253 µM): 0.753
- relative viability (EMC-BAC-2; first compound 0.8 µM): 0.841
- relative viability (EMC-BAC-2; first compound 2.53 µM): 0.784
- relative viability (EMC-BAC-2; first compound 8 µM): 0.817
- relative viability (NCI-H596; first compound 0.08 µM): 0.96
- relative viability (NCI-H596; first compound 0.253 µM): 1.08
- relative viability (NCI-H596; first compound 0.8 µM): 0.982
- relative viability (NCI-H596; first compound 2.53 µM): 0.891
- relative viability (NCI-H596; first compound 8 µM): 0.806
- relative viability (NCI-H647; first compound 0.08 µM): 1.06
- relative viability (NCI-H647; first compound 0.253 µM): 1.09
- relative viability (NCI-H647; first compound 0.8 µM): 0.949
- relative viability (NCI-H647; first compound 2.53 µM): 1.02
- relative viability (NCI-H647; first compound 8 µM): 1.12
- relative viability (LCLC-103H; first compound 0.08 µM): 1.06
- relative viability (LCLC-103H; first compound 0.253 µM): 1.07
- relative viability (LCLC-103H; first compound 0.8 µM): 1.06
- relative viability (LCLC-103H; first compound 2.53 µM): 1.05
- relative viability (LCLC-103H; first compound 8 µM): 1.05
- relative viability (BEN; first compound 0.08 µM): 0.925
- relative viability (BEN; first compound 0.253 µM): 1.02
- relative viability (BEN; first compound 0.8 µM): 1.1
- relative viability (BEN; first compound 2.53 µM): 0.85
- relative viability (BEN; first compound 8 µM): 1.14
- relative viability (NCI-H2087; first compound 0.08 µM): 0.982
- relative viability (NCI-H2087; first compound 0.253 µM): 0.966
- relative viability (NCI-H2087; first compound 0.8 µM): 1.12
- relative viability (NCI-H2087; first compound 2.53 µM): 0.927
- relative viability (NCI-H2087; first compound 8 µM): 1.01
- relative viability (NCI-H441; first compound 0.08 µM): 0.697
- relative viability (NCI-H441; first compound 0.253 µM): 1.28
- relative viability (NCI-H441; first compound 0.8 µM): 0.779
- relative viability (NCI-H441; first compound 2.53 µM): 0.807
- relative viability (NCI-H441; first compound 8 µM): 1
- relative viability (NCI-H2347; first compound 0.08 µM): 0.654
- relative viability (NCI-H2347; first compound 0.253 µM): 0.394
- relative viability (NCI-H2347; first compound 0.8 µM): 0.738
- relative viability (NCI-H2347; first compound 2.53 µM): 0.769
- relative viability (NCI-H2347; first compound 8 µM): 0.711
- relative viability (HCC-44; first compound 0.08 µM): 0.811
- relative viability (HCC-44; first compound 0.253 µM): 0.886
- relative viability (HCC-44; first compound 0.8 µM): 0.83
- relative viability (HCC-44; first compound 2.53 µM): 0.859
- relative viability (HCC-44; first compound 8 µM): 0.854
- relative viability (NCI-H2126; first compound 0.08 µM): 1.02
- relative viability (NCI-H2126; first compound 0.253 µM): 1.09
- relative viability (NCI-H2126; first compound 0.8 µM): 1.17
- relative viability (NCI-H2126; first compound 2.53 µM): 0.994
- relative viability (NCI-H2126; first compound 8 µM): 1.04
- relative viability (NCI-H2023; first compound 0.08 µM): 0.673
- relative viability (NCI-H2023; first compound 0.253 µM): 0.682
- relative viability (NCI-H2023; first compound 0.8 µM): 0.787
- relative viability (NCI-H2023; first compound 2.53 µM): 0.648
- relative viability (NCI-H2023; first compound 8 µM): 0.646
- relative viability (NCI-H650; first compound 0.08 µM): 0.702
- relative viability (NCI-H650; first compound 0.253 µM): 0.606
- relative viability (NCI-H650; first compound 0.8 µM): 0.74
- relative viability (NCI-H650; first compound 2.53 µM): 0.58
- relative viability (NCI-H650; first compound 8 µM): 0.694
- relative viability (201T; first compound 0.08 µM): 1
- relative viability (201T; first compound 0.253 µM): 0.889
- relative viability (201T; first compound 0.8 µM): 1
- relative viability (201T; first compound 2.53 µM): 1.08
- relative viability (201T; first compound 8 µM): 0.958
- relative viability (LOU-NH91; first compound 0.08 µM): 0.727
- relative viability (LOU-NH91; first compound 0.253 µM): 0.718
- relative viability (LOU-NH91; first compound 0.8 µM): 0.707
- relative viability (LOU-NH91; first compound 2.53 µM): 0.702
- relative viability (LOU-NH91; first compound 8 µM): 0.776
- relative viability (HARA; first compound 0.08 µM): 0.971
- relative viability (HARA; first compound 0.253 µM): 1.12
- relative viability (HARA; first compound 0.8 µM): 1
- relative viability (HARA; first compound 2.53 µM): 1.05
- relative viability (HARA; first compound 8 µM): 1.28

— the supplement of paper PMC10307832
